Data published in ChEMBL document CHEMBL3885881, “DrugMatrix”.

Species on record: Rattus norvegicus
Test: DrugMatrix - Regimen: Daily Repeat
Type: toxicity, organism-based, Sprague-Dawley
Parameters: regimen Daily Repeat, gender Male, age 6-8 weeks
Conditions: in vivo, po, route oral GAVAGE, […]; for ABSOLUTE BASOPHIL / ABSOLUTE EOSINOPHIL / ABSOLUTE LYMPHOCYTE / ABSOLUTE MONOCYTE / ABSOLUTE SEGMENTED NEUTROPHIL / BASOPHIL / EOSINOPHIL / ERYTHROCYTE COUNT / HEMATOCRIT / HEMOGLOBIN / LEUKOCYTE COUNT / LYMPHOCYTE / MEAN CORPUSCULAR HEMOGLOBIN / MEAN CORPUSCULAR HEMOGLOBIN CONCENTRATION / MEAN CORPUSCULAR VOLUME / MONOCYTE / NEUTROPHIL / NUCLEATED RED BLOOD CELLS / PLATELET COUNT: tissue Blood; for ALANINE AMINOTRANSFERASE / ALBUMIN / ALKALINE PHOSPHATASE / ASPARTATE AMINOTRANSFERASE / BLOOD UREA NITROGEN / CARBON DIOXIDE / CHLORIDE / CHOLESTEROL / CREATINE PHOSPHOKINASE / CREATININE / GLUCOSE / LACTATE DEHYDROGENASE / LIPASE / PHOSPHORUS / POTASSIUM / SODIUM / TOTAL BILIRUBIN / TOTAL PROTEIN / URIC ACID: tissue Plasma
[1] = 5 mg/kg, 120 h, dose level Low, time 5 day
[2] = 13 mg/kg, 72 h, dose level High, time 3 day
[3] = 13 mg/kg, 120 h, dose level High, time 5 day

O=c1oc2ccccc2c(O)c1Cc1c(O)c2ccccc2oc1=O [DICUMAROL]
ABSOLUTE BASOPHIL [1]: 0 CELLS/uL
ABSOLUTE EOSINOPHIL [1]: 23.33 CELLS/uL
ABSOLUTE LYMPHOCYTE [1]: 6534.33 CELLS/uL
ABSOLUTE MONOCYTE [1]: 0 CELLS/uL
ABSOLUTE SEGMENTED NEUTROPHIL [1]: 809 CELLS/uL
BASOPHIL [1]: 0%
EOSINOPHIL [1]: 0.33%
ERYTHROCYTE COUNT [1]: 5.38 x10E6/uL
HEMATOCRIT [1]: 33.9%
HEMOGLOBIN [1]: 13.03 G/DL
LEUKOCYTE COUNT [1]: 7.37 x10E3/uL
LYMPHOCYTE [1]: 88.67%
MEAN CORPUSCULAR HEMOGLOBIN [1]: 24.27 pg
MEAN CORPUSCULAR HEMOGLOBIN CONCENTRATION [1]: 38.47 G/DL
MEAN CORPUSCULAR VOLUME [1]: 63 fL
MONOCYTE [1]: 0%
NEUTROPHIL [1]: 11%
NUCLEATED RED BLOOD CELLS [1]: 0 /100WBC
PLATELET COUNT [1]: 1062 x10E3/uL
ALANINE AMINOTRANSFERASE [1]: 70.33 u/L
ALBUMIN [1]: 4.17 G/DL
ALKALINE PHOSPHATASE [1]: 492.33 u/L
ASPARTATE AMINOTRANSFERASE [1]: 90.67 u/L
BLOOD UREA NITROGEN [1]: 13.67 mg/dL
CARBON DIOXIDE [1]: 31.67 mmol/L
CHLORIDE [1]: 100 MEQ/L
CHOLESTEROL [1]: 66.67 mg/dL
CREATINE PHOSPHOKINASE [1]: 491.67 u/L
CREATININE [1]: 0.15 mg/dL
GLUCOSE [1]: 160.33 mg/dL
LACTATE DEHYDROGENASE [1]: 134.33 u/L
LIPASE [1]: 9.33 u/L
PHOSPHORUS [1]: 9.47 mg/dL
POTASSIUM [1]: 5.06 MEQ/L
SODIUM [1]: 142.1 MEQ/L
TOTAL BILIRUBIN [1]: 0.17 mg/dL
TOTAL PROTEIN [1]: 6.07 G/DL
URIC ACID [1]: 0.43 mg/dL
ABSOLUTE BASOPHIL [2]: 0 CELLS/uL
ABSOLUTE EOSINOPHIL [2]: 43.33 CELLS/uL
ABSOLUTE LYMPHOCYTE [2]: 9740.67 CELLS/uL
ABSOLUTE MONOCYTE [2]: 39.67 CELLS/uL
ABSOLUTE SEGMENTED NEUTROPHIL [2]: 443 CELLS/uL
BASOPHIL [2]: 0%
EOSINOPHIL [2]: 0.33%
ERYTHROCYTE COUNT [2]: 5.24 x10E6/uL
HEMATOCRIT [2]: 32.97%
HEMOGLOBIN [2]: 12.9 G/DL
LEUKOCYTE COUNT [2]: 10.27 x10E3/uL
LYMPHOCYTE [2]: 95%
MEAN CORPUSCULAR HEMOGLOBIN [2]: 24.7 pg
MEAN CORPUSCULAR HEMOGLOBIN CONCENTRATION [2]: 39.13 G/DL
MEAN CORPUSCULAR VOLUME [2]: 63.17 fL
MONOCYTE [2]: 0.33%
NEUTROPHIL [2]: 4.33%
NUCLEATED RED BLOOD CELLS [2]: 0 /100WBC
PLATELET COUNT [2]: 923.67 x10E3/uL
ALANINE AMINOTRANSFERASE [2]: 65 u/L
ALBUMIN [2]: 3.83 G/DL
ALKALINE PHOSPHATASE [2]: 374.33 u/L
ASPARTATE AMINOTRANSFERASE [2]: 87.33 u/L
BLOOD UREA NITROGEN [2]: 11 mg/dL
CARBON DIOXIDE [2]: 35.33 mmol/L
CHLORIDE [2]: 98 MEQ/L
CHOLESTEROL [2]: 72 mg/dL
CREATINE PHOSPHOKINASE [2]: 494.33 u/L
CREATININE [2]: 0.14 mg/dL
GLUCOSE [2]: 143.67 mg/dL
LACTATE DEHYDROGENASE [2]: 159.67 u/L
LIPASE [2]: 9.33 u/L
PHOSPHORUS [2]: 11.1 mg/dL
POTASSIUM [2]: 6.17 MEQ/L
SODIUM [2]: 142.53 MEQ/L
TOTAL BILIRUBIN [2]: 0.17 mg/dL
TOTAL PROTEIN [2]: 5.83 G/DL
URIC ACID [2]: 0.5 mg/dL
ABSOLUTE BASOPHIL [3]: 0 CELLS/uL
ABSOLUTE EOSINOPHIL [3]: 0 CELLS/uL
ABSOLUTE LYMPHOCYTE [3]: 5152 CELLS/uL
ABSOLUTE MONOCYTE [3]: 45 CELLS/uL
ABSOLUTE SEGMENTED NEUTROPHIL [3]: 403 CELLS/uL
BASOPHIL [3]: 0%
EOSINOPHIL [3]: 0%
ERYTHROCYTE COUNT [3]: 5.48 x10E6/uL
HEMATOCRIT [3]: 33.3%
HEMOGLOBIN [3]: 12.65 G/DL
LEUKOCYTE COUNT [3]: 5.6 x10E3/uL
LYMPHOCYTE [3]: 92%
MEAN CORPUSCULAR HEMOGLOBIN [3]: 23.1 pg
MEAN CORPUSCULAR HEMOGLOBIN CONCENTRATION [3]: 38 G/DL
MEAN CORPUSCULAR VOLUME [3]: 60.75 fL
MONOCYTE [3]: 1%
NEUTROPHIL [3]: 7%
NUCLEATED RED BLOOD CELLS [3]: 1 /100WBC
PLATELET COUNT [3]: 1032 x10E3/uL
ALANINE AMINOTRANSFERASE [3]: 67.5 u/L
ALBUMIN [3]: 3.85 G/DL
ALKALINE PHOSPHATASE [3]: 329.5 u/L
ASPARTATE AMINOTRANSFERASE [3]: 96 u/L
BLOOD UREA NITROGEN [3]: 13 mg/dL
CARBON DIOXIDE [3]: 32.5 mmol/L
CHLORIDE [3]: 100 MEQ/L
CHOLESTEROL [3]: 64 mg/dL
CREATINE PHOSPHOKINASE [3]: 628 u/L
CREATININE [3]: 0.18 mg/dL
GLUCOSE [3]: 150.5 mg/dL
LACTATE DEHYDROGENASE [3]: 133 u/L
LIPASE [3]: 11 u/L
PHOSPHORUS [3]: 9.75 mg/dL
POTASSIUM [3]: 5.09 MEQ/L
SODIUM [3]: 145.4 MEQ/L
TOTAL BILIRUBIN [3]: 0.15 mg/dL
TOTAL PROTEIN [3]: 6 G/DL
URIC ACID [3]: 0.45 mg/dL
